Laboratory results published in ChEMBL document CHEMBL5291721, “A preclinical secondary pharmacology resource illuminates target-adverse drug reaction associations of marketed drugs” (Nat Commun, 2023).

Key:
[1] = molecular target: Hydroxycarboxylic acid receptor 2 (Homo sapiens, UniProt Q8TDS4)
[2] = molecular target: Sodium channel protein type 5 subunit alpha (Homo sapiens, UniProt Q14524); format: functional, cell-based
[3] = molecular target: T1, Muscarinic acetylcholine receptor M5 (Homo sapiens, UniProt P08912)
T1 sequence (P08912 whole entry): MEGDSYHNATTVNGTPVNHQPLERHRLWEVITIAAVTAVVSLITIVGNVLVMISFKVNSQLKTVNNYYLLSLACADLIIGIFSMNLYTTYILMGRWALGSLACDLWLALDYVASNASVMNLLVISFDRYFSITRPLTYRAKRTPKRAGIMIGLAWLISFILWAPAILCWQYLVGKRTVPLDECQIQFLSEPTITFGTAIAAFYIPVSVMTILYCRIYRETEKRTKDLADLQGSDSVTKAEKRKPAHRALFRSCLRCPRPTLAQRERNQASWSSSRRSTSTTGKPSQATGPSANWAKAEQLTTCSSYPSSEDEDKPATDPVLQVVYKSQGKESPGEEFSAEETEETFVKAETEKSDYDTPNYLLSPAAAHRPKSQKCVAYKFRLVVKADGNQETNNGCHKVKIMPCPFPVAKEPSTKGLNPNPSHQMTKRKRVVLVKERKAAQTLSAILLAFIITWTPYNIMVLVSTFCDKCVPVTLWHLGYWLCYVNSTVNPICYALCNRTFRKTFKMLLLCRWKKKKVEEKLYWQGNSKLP

Cannabinoid receptor 1 = Cannabinoid receptor 1 (Homo sapiens, UniProt P21554); format: functional
Sequence of Cannabinoid receptor 1 (P21554 whole entry): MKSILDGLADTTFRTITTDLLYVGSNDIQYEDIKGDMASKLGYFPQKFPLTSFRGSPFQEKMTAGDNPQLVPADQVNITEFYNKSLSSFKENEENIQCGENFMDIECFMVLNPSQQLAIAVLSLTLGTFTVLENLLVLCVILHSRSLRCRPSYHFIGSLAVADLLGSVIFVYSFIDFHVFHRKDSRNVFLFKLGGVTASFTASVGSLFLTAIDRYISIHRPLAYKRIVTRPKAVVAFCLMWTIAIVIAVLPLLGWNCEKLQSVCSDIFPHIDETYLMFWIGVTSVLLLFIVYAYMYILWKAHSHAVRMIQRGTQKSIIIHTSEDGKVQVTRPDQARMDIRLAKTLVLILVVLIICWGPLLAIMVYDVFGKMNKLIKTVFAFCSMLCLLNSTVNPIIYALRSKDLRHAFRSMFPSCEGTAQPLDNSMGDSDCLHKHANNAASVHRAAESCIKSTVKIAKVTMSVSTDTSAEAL

[4] = molecular target: 5-hydroxytryptamine receptor 5A (Homo sapiens, UniProt P47898)
Sequence of 5-hydroxytryptamine receptor 5A (P47898 whole entry): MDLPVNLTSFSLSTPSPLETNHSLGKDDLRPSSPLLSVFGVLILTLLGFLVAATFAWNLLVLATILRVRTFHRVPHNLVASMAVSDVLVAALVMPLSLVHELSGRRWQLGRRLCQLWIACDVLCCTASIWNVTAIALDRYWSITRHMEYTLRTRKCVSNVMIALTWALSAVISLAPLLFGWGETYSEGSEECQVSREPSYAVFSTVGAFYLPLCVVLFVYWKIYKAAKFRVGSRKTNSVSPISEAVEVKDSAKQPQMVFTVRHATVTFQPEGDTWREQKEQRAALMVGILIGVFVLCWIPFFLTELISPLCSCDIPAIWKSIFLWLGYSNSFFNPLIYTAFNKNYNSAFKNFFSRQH

[5] = molecular target: 5-hydroxytryptamine receptor 6 (Homo sapiens, UniProt P50406)
Sequence of 5-hydroxytryptamine receptor 6 (P50406 whole entry): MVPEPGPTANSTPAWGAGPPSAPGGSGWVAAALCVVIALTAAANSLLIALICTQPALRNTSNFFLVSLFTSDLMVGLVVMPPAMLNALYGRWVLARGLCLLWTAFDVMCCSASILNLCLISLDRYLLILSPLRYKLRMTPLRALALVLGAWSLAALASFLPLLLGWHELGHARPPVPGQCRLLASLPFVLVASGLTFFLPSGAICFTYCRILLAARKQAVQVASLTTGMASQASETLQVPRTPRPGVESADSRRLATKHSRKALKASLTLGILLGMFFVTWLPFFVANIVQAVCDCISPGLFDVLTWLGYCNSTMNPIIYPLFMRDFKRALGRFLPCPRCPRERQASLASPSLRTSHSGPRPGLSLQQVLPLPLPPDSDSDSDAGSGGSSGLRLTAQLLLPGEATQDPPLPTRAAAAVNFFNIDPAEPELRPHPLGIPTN

[6] = molecular target: 5-hydroxytryptamine receptor 7 (Homo sapiens, UniProt P34969)
Sequence of 5-hydroxytryptamine receptor 7 (P34969 whole entry): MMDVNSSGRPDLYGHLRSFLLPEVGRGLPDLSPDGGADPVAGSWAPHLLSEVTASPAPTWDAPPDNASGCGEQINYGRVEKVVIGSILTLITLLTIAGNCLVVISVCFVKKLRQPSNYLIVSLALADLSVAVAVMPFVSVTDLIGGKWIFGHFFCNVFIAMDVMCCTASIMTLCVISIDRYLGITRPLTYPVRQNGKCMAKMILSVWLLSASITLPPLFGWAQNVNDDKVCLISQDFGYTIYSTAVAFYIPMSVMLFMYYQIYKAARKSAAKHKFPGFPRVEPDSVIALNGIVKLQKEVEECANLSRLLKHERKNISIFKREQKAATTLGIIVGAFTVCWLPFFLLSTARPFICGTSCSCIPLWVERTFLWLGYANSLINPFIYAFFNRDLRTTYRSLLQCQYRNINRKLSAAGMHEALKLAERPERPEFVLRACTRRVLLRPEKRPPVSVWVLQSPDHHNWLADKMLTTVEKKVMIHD

[7] = molecular target: Rod cGMP-specific 3',5'-cyclic phosphodiesterase subunit alpha (Homo sapiens, UniProt P16499); format: functional
Acetylcholinesterase = Acetylcholinesterase (Homo sapiens, UniProt P22303); format: functional
Sequence of Acetylcholinesterase (P22303 whole entry): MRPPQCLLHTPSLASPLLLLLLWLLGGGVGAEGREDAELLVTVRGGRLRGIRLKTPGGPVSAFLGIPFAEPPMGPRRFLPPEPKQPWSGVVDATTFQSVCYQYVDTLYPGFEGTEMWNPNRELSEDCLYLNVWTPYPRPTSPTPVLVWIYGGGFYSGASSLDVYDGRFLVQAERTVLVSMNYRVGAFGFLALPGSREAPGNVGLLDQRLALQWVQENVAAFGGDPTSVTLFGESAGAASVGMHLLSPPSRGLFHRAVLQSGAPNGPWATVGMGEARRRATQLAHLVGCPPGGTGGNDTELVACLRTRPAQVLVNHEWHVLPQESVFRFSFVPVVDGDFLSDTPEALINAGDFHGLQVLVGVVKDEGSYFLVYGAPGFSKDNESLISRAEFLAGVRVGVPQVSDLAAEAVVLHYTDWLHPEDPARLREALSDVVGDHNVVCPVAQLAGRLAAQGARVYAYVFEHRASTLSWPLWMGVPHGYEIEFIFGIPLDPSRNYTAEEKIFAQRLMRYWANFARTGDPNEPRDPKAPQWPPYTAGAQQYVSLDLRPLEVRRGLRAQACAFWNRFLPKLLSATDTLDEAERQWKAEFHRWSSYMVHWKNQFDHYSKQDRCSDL

Thromboxane A2 receptor = molecular target: T2, Thromboxane A2 receptor (Homo sapiens, UniProt P21731); format: functional, cell-based
T2 sequence (P21731 whole entry): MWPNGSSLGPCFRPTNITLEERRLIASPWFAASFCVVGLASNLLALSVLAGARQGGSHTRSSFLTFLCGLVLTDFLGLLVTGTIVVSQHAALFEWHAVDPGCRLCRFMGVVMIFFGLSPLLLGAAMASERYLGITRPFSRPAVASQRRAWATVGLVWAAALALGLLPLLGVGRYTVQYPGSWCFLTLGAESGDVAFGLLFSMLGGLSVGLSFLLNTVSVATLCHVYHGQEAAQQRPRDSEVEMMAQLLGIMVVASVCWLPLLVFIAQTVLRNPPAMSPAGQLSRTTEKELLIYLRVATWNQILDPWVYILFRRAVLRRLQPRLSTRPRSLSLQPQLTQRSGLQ

Androgen receptor [8] = molecular target: T3, Androgen receptor (Rattus norvegicus, UniProt P15207)
T3 sequence (P15207 whole entry): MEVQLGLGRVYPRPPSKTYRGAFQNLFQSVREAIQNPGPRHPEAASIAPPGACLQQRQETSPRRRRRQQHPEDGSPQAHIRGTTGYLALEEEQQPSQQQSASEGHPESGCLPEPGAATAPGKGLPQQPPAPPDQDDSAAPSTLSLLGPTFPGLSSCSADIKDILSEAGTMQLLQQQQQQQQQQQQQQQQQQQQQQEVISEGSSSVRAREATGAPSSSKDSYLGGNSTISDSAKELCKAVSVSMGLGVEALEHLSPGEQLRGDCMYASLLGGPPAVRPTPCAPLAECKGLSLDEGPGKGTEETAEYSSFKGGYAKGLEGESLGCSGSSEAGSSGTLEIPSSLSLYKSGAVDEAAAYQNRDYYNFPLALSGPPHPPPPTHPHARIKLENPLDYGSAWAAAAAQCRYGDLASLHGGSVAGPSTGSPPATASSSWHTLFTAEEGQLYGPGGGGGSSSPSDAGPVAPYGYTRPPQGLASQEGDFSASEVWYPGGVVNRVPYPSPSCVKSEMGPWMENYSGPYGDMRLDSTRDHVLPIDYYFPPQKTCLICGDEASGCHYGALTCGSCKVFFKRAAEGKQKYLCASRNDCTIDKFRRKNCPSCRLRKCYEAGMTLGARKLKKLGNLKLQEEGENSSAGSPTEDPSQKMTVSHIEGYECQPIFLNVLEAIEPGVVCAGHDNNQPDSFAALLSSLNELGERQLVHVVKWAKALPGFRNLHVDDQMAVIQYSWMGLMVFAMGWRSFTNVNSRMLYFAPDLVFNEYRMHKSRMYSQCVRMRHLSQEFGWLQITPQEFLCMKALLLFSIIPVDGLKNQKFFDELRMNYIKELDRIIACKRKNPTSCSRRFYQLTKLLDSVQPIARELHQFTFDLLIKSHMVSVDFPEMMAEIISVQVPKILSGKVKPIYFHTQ

[9] = molecular target: Gamma-aminobutyric acid type B receptor subunit 1 (Homo sapiens, UniProt Q9UBS5)
Sequence of Gamma-aminobutyric acid type B receptor subunit 1 (Q9UBS5 whole entry): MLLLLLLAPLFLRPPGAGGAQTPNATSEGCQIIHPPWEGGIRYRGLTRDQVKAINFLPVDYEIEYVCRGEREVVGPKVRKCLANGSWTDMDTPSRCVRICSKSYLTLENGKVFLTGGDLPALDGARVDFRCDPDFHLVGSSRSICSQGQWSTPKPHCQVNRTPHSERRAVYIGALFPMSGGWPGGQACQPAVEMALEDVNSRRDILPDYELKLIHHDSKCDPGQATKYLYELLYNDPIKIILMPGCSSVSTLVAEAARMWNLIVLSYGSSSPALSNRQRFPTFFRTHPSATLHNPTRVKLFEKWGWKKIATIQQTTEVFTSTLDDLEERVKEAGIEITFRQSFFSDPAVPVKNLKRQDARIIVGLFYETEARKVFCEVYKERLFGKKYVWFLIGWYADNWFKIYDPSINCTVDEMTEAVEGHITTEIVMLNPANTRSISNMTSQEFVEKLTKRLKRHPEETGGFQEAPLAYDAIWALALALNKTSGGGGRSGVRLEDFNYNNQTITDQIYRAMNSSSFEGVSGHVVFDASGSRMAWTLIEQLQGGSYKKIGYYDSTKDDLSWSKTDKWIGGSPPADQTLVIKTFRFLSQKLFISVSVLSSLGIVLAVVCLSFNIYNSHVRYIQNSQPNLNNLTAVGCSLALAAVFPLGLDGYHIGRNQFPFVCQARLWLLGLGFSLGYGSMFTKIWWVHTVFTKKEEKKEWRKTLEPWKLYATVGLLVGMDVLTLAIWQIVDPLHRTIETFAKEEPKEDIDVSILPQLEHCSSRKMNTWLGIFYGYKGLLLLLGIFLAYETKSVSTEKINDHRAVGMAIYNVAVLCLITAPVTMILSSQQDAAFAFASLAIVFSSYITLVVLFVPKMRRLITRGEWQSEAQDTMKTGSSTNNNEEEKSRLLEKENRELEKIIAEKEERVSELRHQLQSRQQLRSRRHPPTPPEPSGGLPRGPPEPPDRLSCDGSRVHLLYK

[10] = molecular target: Synaptic vesicular amine transporter (Rattus norvegicus, UniProt Q01827); format: functional
Sequence of Synaptic vesicular amine transporter (Q01827 whole entry): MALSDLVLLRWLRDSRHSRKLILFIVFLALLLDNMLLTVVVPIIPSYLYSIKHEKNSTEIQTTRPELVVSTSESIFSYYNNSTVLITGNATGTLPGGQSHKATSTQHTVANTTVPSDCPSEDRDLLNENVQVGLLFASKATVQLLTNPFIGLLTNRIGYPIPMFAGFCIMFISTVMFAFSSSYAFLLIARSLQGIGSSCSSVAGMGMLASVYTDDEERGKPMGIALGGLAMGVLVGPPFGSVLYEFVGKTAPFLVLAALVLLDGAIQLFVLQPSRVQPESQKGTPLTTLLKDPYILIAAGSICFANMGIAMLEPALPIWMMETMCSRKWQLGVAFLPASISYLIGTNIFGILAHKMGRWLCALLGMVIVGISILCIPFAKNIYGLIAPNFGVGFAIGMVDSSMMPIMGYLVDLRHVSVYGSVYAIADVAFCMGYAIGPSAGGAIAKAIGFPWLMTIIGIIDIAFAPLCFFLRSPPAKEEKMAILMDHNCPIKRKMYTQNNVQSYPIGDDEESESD

Androgen receptor [11] = molecular target: T3, Androgen receptor; format: functional
Androgen receptor [12] = molecular target: T3, Androgen receptor; format: functional; remark: listed apart in the source
[13] = molecular target: Voltage-dependent L-type calcium channel subunit alpha-1C (Homo sapiens, UniProt Q13936); format: functional, cell-based
[14] = molecular target: 5-hydroxytryptamine receptor 2A (Homo sapiens, UniProt P28223)
Sequence of 5-hydroxytryptamine receptor 2A (P28223 whole entry): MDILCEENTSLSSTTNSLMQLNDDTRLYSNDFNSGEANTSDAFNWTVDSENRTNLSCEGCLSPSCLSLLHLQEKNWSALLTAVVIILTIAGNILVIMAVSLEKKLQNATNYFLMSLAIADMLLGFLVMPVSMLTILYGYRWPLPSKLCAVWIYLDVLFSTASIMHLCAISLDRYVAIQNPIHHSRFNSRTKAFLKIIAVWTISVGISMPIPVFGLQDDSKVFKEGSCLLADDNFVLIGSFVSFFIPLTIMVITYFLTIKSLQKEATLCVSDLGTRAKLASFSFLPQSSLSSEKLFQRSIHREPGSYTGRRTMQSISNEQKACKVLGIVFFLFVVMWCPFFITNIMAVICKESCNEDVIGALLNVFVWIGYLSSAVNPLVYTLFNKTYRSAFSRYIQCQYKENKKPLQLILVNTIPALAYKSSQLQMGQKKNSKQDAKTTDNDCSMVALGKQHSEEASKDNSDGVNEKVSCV
Also: assay procedure not described here.

Sequence of Hydroxycarboxylic acid receptor 2 (Q8TDS4 whole entry): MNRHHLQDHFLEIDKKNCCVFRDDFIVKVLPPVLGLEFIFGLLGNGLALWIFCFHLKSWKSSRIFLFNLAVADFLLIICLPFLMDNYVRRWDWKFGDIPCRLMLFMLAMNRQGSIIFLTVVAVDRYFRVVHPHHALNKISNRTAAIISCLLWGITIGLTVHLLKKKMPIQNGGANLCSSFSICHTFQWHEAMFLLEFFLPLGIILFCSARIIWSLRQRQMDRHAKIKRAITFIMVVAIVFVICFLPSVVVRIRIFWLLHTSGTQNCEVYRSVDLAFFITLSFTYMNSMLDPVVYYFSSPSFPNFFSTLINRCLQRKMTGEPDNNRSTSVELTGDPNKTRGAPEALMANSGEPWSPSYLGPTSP

CCOC(=O)[C@H](CCc1ccccc1)N[C@@H](C)C(=O)N1[C@H](C(=O)O)C[C@@H]2CCC[C@@H]21
AC50 [1]: > 10 µM
AC50 [2]: > 30 µM

NCC(CC(=O)O)c1ccc(Cl)cc1 (stereo unspecified) [BACLOFEN]
AC50 [3]: > 10 µM
AC50 (Cannabinoid receptor 1): > 10 µM
AC50 [4]: > 10 µM
AC50 [5]: > 10 µM
AC50 [6]: > 10 µM
AC50 [7]: > 10 µM
AC50 (Acetylcholinesterase): > 30 µM
AC50 (Thromboxane A2 receptor): > 30 µM

Cc1ccc(-c2cc(C(F)(F)F)nn2-c2ccc(S(N)(=O)=O)cc2)cc1 [CELECOXIB]
AC50 (Androgen receptor [8]): > 30 µM
AC50 [3]: > 10 µM
AC50 (Cannabinoid receptor 1): > 10 µM
AC50 [9]: > 10 µM
AC50 [1]: > 10 µM
AC50 [4]: > 10 µM
AC50 [5]: > 10 µM
AC50 [6]: > 10 µM
AC50 [7]: > 10 µM

CC1=C(C(=O)O)N2C(=O)[C@@H](NC(=O)[C@H](N)c3ccccc3)[C@H]2SC1 [CEPHALEXIN ANHYDROUS]
AC50 [1]: > 10 µM

CN(C)CCC(c1ccc(Cl)cc1)c1ccccn1 (stereo unspecified) [CHLORPHENIRAMINE]
AC50 [3]: 6.12 µM
AC50 (Cannabinoid receptor 1): > 10 µM
AC50 [4]: > 10 µM
AC50 [5]: > 10 µM
AC50 [6]: > 10 µM
AC50 [7]: > 10 µM
AC50 [2]: > 30 µM

CN(C)CC(c1ccc(O)cc1)C1(O)CCCCC1 (stereo unspecified) [DESVENLAFAXINE]
AC50 [10]: > 30 µM

O=C(O)c1cc(O)ccc1O [GENTISIC ACID]
AC50 [10]: > 30 µM

C[C@]12CCC(=O)C=C1CC[C@@H]1[C@@H]2[C@@H](O)C[C@@]2(C)[C@H]1CC[C@]2(O)C(=O)CO [HYDROCORTISONE]
AC50 (Androgen receptor [8]): > 30 µM
AC50 [1]: > 10 µM

O=C(CCNNC(=O)c1ccncc1)NCc1ccccc1 [NIALAMIDE]
AC50 [2]: > 50 µM
AC50 [10]: > 30 µM

CC[C@H]1[C@@H](O)[C@@H]2[C@H](CC[C@]3(C)[C@@H]([C@H](C)CCC(=O)O)CC[C@@H]23)[C@@]2(C)CC[C@@H](O)C[C@@H]12 [OBETICHOLIC ACID]
AC50 (Androgen receptor [11]): > 30 µM
AC50 (Androgen receptor [12]): > 30 µM
AC50 [13]: > 30 µM
AC50 [2]: > 30 µM
AC50 [10]: > 30 µM

COc1ccccc1OCC(O)CN1CCN(CC(=O)Nc2c(C)cccc2C)CC1 (stereo unspecified) [RANOLAZINE]
AC50 [13]: > 50 µM

Cc1c(C(=O)NN2CCCCC2)nn(-c2ccc(Cl)cc2Cl)c1-c1ccc(Cl)cc1 [RIMONABANT]
AC50 (Androgen receptor [11]): > 30 µM
AC50 (Androgen receptor [8]): > 30 µM
AC50 [3]: > 10 µM
AC50 [4]: > 10 µM
AC50 [5]: > 10 µM
AC50 [6]: > 10 µM
AC50 [7]: > 10 µM
AC50 (Acetylcholinesterase): > 30 µM
AC50 (Thromboxane A2 receptor): > 30 µM
AC50 [14]: > 10 µM

CS(=O)(=O)c1ccc(C2=C(c3ccccc3)C(=O)OC2)cc1 [ROFECOXIB]
AC50 [3]: > 10 µM
AC50 (Cannabinoid receptor 1): > 10 µM
AC50 [9]: > 10 µM
AC50 [4]: > 10 µM
AC50 [5]: > 10 µM
AC50 [6]: > 10 µM
AC50 [7]: > 10 µM

CO[C@H]1C[C@@H]2CC[C@@H](C)[C@@](O)(O2)C(=O)C(=O)N2CCCC[C@H]2C(=O)O[C@H]([C@H](C)C[C@@H]2CC[C@@H](O)[C@H](OC)C2)CC(=O)[C@H](C)/C=C(\C)[C@@H](O)[C@@H](OC)C(=O)[C@H](C)C[C@H](C)/C=C/C=C/C=C/1C [SIROLIMUS]
AC50 (Androgen receptor [8]): 11.9 µM
AC50 [13]: > 50 µM
AC50 [9]: > 10 µM
AC50 [10]: 23 µM

Cn1nnc2c(C(N)=O)ncn2c1=O [TEMOZOLOMIDE]
AC50 [3]: > 10 µM
AC50 (Cannabinoid receptor 1): > 10 µM
AC50 [9]: > 10 µM
AC50 [5]: > 10 µM
AC50 [6]: > 10 µM
AC50 (Acetylcholinesterase): > 30 µM
AC50 (Thromboxane A2 receptor): > 30 µM
AC50 [14]: > 10 µM

Clc1ccc2nsnc2c1NC1=NCCN1 [TIZANIDINE]
AC50 (Androgen receptor [8]): > 30 µM
AC50 [1]: > 10 µM

CCCCCCOc1nsnc1C1=CCCN(C)C1 [XANOMELINE]
AC50 [13]: 10 µM
AC50 [2]: 19 µM
AC50 [10]: 1.8 µM

Cc1cn([C@H]2C[C@H](N=[N+]=[N-])[C@@H](CO)O2)c(=O)[nH]c1=O [ZIDOVUDINE]
AC50 [9]: > 10 µM
AC50 [1]: > 10 µM
AC50 [2]: > 30 µM
